This passage reports melting point results from a melting point compilation (Tetko et al.; mined from patent text by program, amines drawn as free bases though some values may be those of a salt).

Usually melting point stands for the temperature, or range, at which the solid turns liquid.

A value given as a limit tells only on which side of the number the result lay.

`O=C1Nc2c(Cl)cccc2C12COc1cc3c(cc12)CCO3` (stereo unspecified) came in with a melting point above 250 °C. For `CC1CC(=O)NN=C1c1ccc(-n2ccc(CN(C)C)c2)cc1` (stereo unspecified) the value was 167 to 168 °C; for `O=C(c1cc2ccnc(Cl)c2[nH]1)N1CCCC1`, 152 to 154 °C; for `CCOC(=O)c1ccc(C(=O)c2ccc(N)cc2)cc1`, 125 °C. In the case of `CC#CCN=C(NC#N)NCCSCc1[nH]cnc1C`, the melting point was 128 to 130 °C. In turn, `c1ccc(-c2ccc(-c3nc4n(n3)Cc3ccccc3-4)cc2)cc1` showed a melting point of 231 °C. The value for `N#CCOC(=O)c1cc2ccccc2o1` was 74 to 76 °C; that for `Fc1ccccc1OCc1ccc2ccccc2n1` was 84 to 86 °C; that for `CCCCCCCCCCCCOC(=O)c1ccc2oc3ccccc3c(=O)c2c1` was 79 to 81 °C. With `Cc1cccc(-c2n[nH]cc2-c2ccc(F)c(-c3ccc(O)cc3)c2)n1`, the melting point fell in the range of 72 to 74 °C. `N#Cc1ccc2c(c1)CC(Br)C2=O` (stereo unspecified): the melting point lay in the range of 115 to 118 °C.

`CC(=Cc1ccc2c(c1)S(=O)(=O)c1cc(C=C(C)c3ccccc3)ccc1N2C)c1ccccc1` displayed a melting point of 190 to 193 °C.

With `CCOC(=O)NN=Cc1c[nH]c(-c2ccccc2)n1`, the melting point was in the range of 196 to 200 °C.

Take `CCC(C)(CC)N=C(NC#N)Nc1cc(Cl)cc(Cl)c1`: the melting point is 148 to 150 °C.

Compound `O=C(Nc1ccc(C(=O)Nc2nnc(-c3cc(Cl)cc(Cl)c3O)s2)cc1)c1ccccc1` yielded a melting point of 301 °C. The value for `CC1=C(C(=O)N(C)C)C(c2ccccc2)C(C(N)=O)=C(N)N1` (stereo unspecified) was 236 °C; that for `CC(=O)OC[C@H]1OCC(=NO)[C@@H](OC(C)=O)[C@@H]1OC(C)=O` was 90 to 92 °C. For `CC(=O)N1CC(C)(C)c2cc3nc[nH]c3cc21` the value was 214 to 216 °C. `CCN(CC)CCn1c2c(c3ccccc31)CCS(=O)(=O)CCC2`: the melting point was 118 to 120 °C. For `CNC(=O)c1cccc(F)c1Nc1nc(Nc2ccc3c(c2)CCCC(=O)N3CCOC)ncc1Br` the value was 191 to 193 °C; for `Cc1cc2c(nc1OCCCCN1CCN(c3cccc4ccccc34)CC1)NC(=O)CC2`, 76 to 78 °C. The value for `CN(Cc1ccccc1)c1cc(C#N)ccc1C1NC(=O)NC1=O` (stereo unspecified) was 95 to 98 °C; that for `O=C(O)C=CSc1c[nH]c2ccccc12` was 172 to 173 °C. The value for `CC(=O)NNC1=Nc2sccc2C(c2ccccc2)=NC1` was 194 to 196 °C; that for `CCNC(=O)c1ccc(N2CCNCC2)cc1` was 131 to 134 °C. `CC1(c2nnn[nH]2)CC(Cl)(I)C=CC1N` (stereo unspecified) yielded a melting point of 205 to 208 °C. The value for `COc1ccc(C(=O)CCC2CCCCC2)c(OC)c1` was 34 to 35 °C; that for `CCOC(=O)C(Cc1ccc(OCCN2CCC(C)(C)c3cc(C(=O)c4ccccc4)ccc32)cc1)OCC(F)(F)F` (stereo unspecified) was 56 to 58 °C; that for `OC(Cc1ccncc1)C(Cl)(Cl)Cl` (stereo unspecified) was 166 to 168 °C.

For `CC(CCCC(C)(C)O)C1CC(=O)C2=C3CCC4CC(O)CCC4(C)C3CCC21C` (stereo unspecified), the melting point was 177 to 179 °C. For `COC(=O)/C=C(\C)c1ccc2c(c1)C(C)(C)OC(=O)N2` the value was 131 to 132 °C; for `Nc1ccc(Cl)c(N=C2NCCN2)c1`, 154 to 155 °C. For `O=Cc1cc2c(s1)CCCc1cc(=O)n(-c3ccc(Cl)cc3)nc1-2` the value was 170 to 172 °C; for `CC(=O)N1CCN(C)C1C(c1ccccc1)c1ccccc1` (stereo unspecified), 164 to 165 °C.

In turn, `O=[N+]([O-])c1ccc(CP2(=O)OCCCO2)cc1` gave a melting point of 144 to 145 °C. For `CN1CCN(C2=Nc3ccc(Cl)cc3Cn3cccc32)CC1` the value was 186 to 188 °C; for `CC(CO[N+](=O)[O-])NC(=O)[C@@H]1CSC(=O)N1` (stereo partly specified), 112 to 114 °C. The value for `CC(C)(C)OC(=O)NNc1ccc(N)cn1` was 140 to 142 °C. For `CNC(=S)Nc1ccc(Cc2cc(C)c(C(=O)c3ccc(Cl)cc3)n2C)nc1` the value was 135 °C; for `CCOC(=O)Nc1ccc(OC)nc1`, 76 °C; for `O=C(Nc1ccc(N2CCCCC2)cc1)N(C[C@@H]1CCC[C@H](CN(C(=O)Nc2ccc(N3CCCCC3)cc2)C2CCCCC2)C1)C1CCCCC1`, 174 to 178 °C.

Consider `CC(=O)Nc1cccc(-c2cccc(-n3cnc4cc(C(F)(F)F)ccc43)c2)c1`, for which the melting point fell in the range of 118 to 120 °C.

`CCc1nc(Cc2ccc([N+](=O)[O-])cc2)no1` gave a melting point of 69 to 70 °C. `CNS(=O)(=O)CCc1ccc2[nH]cc(CC(=O)O)c2c1` displayed a melting point of 123 to 125 °C. In the case of `CCCc1c(O)ccc(C(=O)c2ccccc2O)c1O`, the melting point lay in the range of 110 to 113 °C. With `CCOC(=O)NCN1C(=O)CN=C(c2ccccc2Cl)c2cc(Cl)ccc21`, the melting point is 147 to 149 °C. For `CCN(CC)CCOC(=O)c1ccc(/C=C(\C)c2ccc3c(c2)C(C)(C)CCC3(C)C)cc1` the value was 65 to 66 °C; for `COc1cc(OC)cc(-c2ncoc2-c2ccc(OC)c(N)c2O)c1`, 152 to 154 °C; for `Cc1c(Br)c2cnnc(OCc3ccc(F)cc3)c2n1Cc1ccccc1`, 128 to 130 °C. For `COc1ccc(CN(C(=O)C(F)(F)F)c2cc(F)cc(C#N)c2)cc1` the value was 102 to 103 °C. The value for `Cc1c(-c2ccccc2)oc2c(S(=O)(=O)N(C)CCO)cccc2c1=O` was 146 to 147 °C; that for `Nc1ccccc1NCCCN1CCC(n2c(=O)[nH]c3cc(Cl)ccc32)CC1` was 196 °C; that for `COc1ccc(-c2cn(-c3cccc(OCCCl)c3)c3ncnc(N)c23)cc1OCc1ccccc1` was 170 °C. In turn, `CCOP(=O)(OCC)N1CCN(c2cc3c(cc2F)c(=O)c(C(=O)O)cn3C2CC2)CC1` yielded a melting point of 192 to 193 °C. The value for `COc1ccc(Cc2nnsc2-c2cccs2)cc1` was 72.2 to 73.3 °C; that for `Nc1ccccc1/C=C/c1ncon1` was 108 to 109 °C; that for `N#Cc1ccc([C@@H]2[C@@H]3C(=O)N(CC4CCCCC4)C(=O)[C@@H]3[C@H]3CCCN32)cc1` (racemic) was 119 to 122 °C. The value for `CCc1nc2c(N)nc3cc(CCC(=O)N(C)C)ccc3c2n1CC(C)(C)O` was 234 to 237 °C. For `CC(=O)C(=Cc1ccc(C(=O)O)cc1)C(C)=O` the value was 195 to 199 °C; for `CCN(CC)CCC1CCCCN1CCNC(=O)N1c2ccccc2C(=O)Nc2cccnc21` (stereo unspecified), 161 to 162 °C; for `Nc1ccc2c(c1)C(=O)N(C1CCN(Cc3ccccc3)CC1)C2=O`, 216 to 218 °C. For `O=c1c(CCCc2ccccn2)cc2cccnc2n1-c1ccc2nsnc2c1`, the melting point worked out at 170 °C. For `CCn1ccc(=O)c2cnc(-c3ccncc3)nc21` the value was 200 to 202 °C; for `NS(=O)(=O)c1nc2ccc(OC(=O)c3ccccc3)cc2s1`, 208 to 210 °C. The value for `Cc1nccn1CCN1CCC(Nc2nc3ccccc3n2Cc2ccc(F)cc2)CC1` was 170 °C; that for `CCOC(=O)CCNC=C(C(=O)OCC)C(=O)c1cc(F)c(Cl)c([N+](=O)[O-])c1Cl` was 107 to 108 °C; that for `O=C1OCCC12Sc1ccc(S(=O)(=O)N3CCOCC3)cc1C2=O` (stereo unspecified) was 220 to 222 °C.

In turn, `CCOC(=O)c1sc2cccc(O)c2c1C` yielded a melting point of 183 to 184 °C. For `CSCCC(NC(=O)OCc1ccccc1)C(=O)Nc1nncs1` (racemic) the value was 155 to 159 °C.

`CC(=O)c1c(C)[nH]c(-c2ccncc2)c1-c1ccncc1`: the melting point lay within 236 to 239 °C. The value for `O=S(=O)(Oc1cccc(OS(=O)(=O)C(F)(F)F)c1OS(=O)(=O)C(F)(F)F)C(F)(F)F` was 47.5 to 48.5 °C.

For the compound `CCOc1ccc(-n2c(C(C)N(Cc3cccnc3)C(=O)OC(C)(C)C)nc3ccccc3c2=O)cc1` (stereo unspecified), the melting point was 67.5 °C. For `CNC(=O)c1ccc(C(=O)OC)cc1[N+](=O)[O-]` the value was 155 °C; for `NC(=O)c1c(F)ccc(OCC=CC(=O)O)c1F`, 187 to 188 °C; for `N#CN=C(NCCSCc1ncccc1Br)NCCSCc1ncccc1Br`, 118 to 119 °C.

Regarding `CCC(=O)C(CCCCc1ccc(O)cc1)C(=O)CC`, the melting point lay in the range of 67 to 69 °C. In the case of `CCCCN(CC(=O)N1c2ccccc2N(C)C(=O)c2cnc(-c3ccccc3)nc21)C(C)(C)C`, the melting point lay in the range of 111 to 113 °C. The value for `Cc1oc(-c2ccccc2)nc1COc1ccc(CCCC2OC(=O)NC2=O)cc1OC(C)C` (stereo unspecified) was 120 to 121 °C; that for `Fc1cc2c(Nc3ccc(Br)c(Br)c3)ncnc2cn1` was 262 to 264 °C; that for `COc1cc(/C=C/C(=O)CC(=O)C2CC2)ccc1O` was 74.5 to 79 °C. `COc1cc(Nc2nc3cccc(-c4ccc(C#N)cc4)c3o2)cc(OC)c1OC`: the melting point was in the range of 222 to 223 °C. For `NNc1nc2ccc(C(F)(F)F)cc2n(OCc2ccccc2)c1=O` the value was 174 to 176 °C; for `CCOC(=O)C(C)=NNc1ccc2[nH]c(=O)[nH]c2c1`, 220 °C. For the compound `COc1ccc(C(C)(C)C)cc1NC(=O)Nc1ccc(-c2cnc3c(c2)NC(=O)CS3(=O)=O)c2ccccc12`, the melting point lay in the range of 209 to 211 °C. For `CN(C)Cc1cc(CCCCCCCOc2ccc(C3=NCCO3)cc2)on1` the value was 69.5 to 70 °C; for `Nc1ccc(OCCCN2C(=O)c3ccccc3C2=O)cc1[N+](=O)[O-]`, 164 °C.

As for `CCC1C=CCCC1C(O)C(N)=O` (stereo unspecified), the melting point was 156 to 158 °C. For `COc1ccc(S(=O)(=O)F)cc1NC(C)=O` the value was 162 to 164 °C; for `CC1(C)c2cc(C(=O)O)ccc2Oc2ncccc21`, 241 to 242 °C; for `O=C1c2ccccc2C(O)(c2ccc(Cl)cc2)N1CCc1ccc([N+](=O)[O-])cc1` (stereo unspecified), 206 to 208 °C.

For `CCN1C(=O)C(O)=C(c2c(C)cc(C)cc2C)C1=O`, the melting point turned out to be 168 °C.
